Laboratory results from ChEMBL document CHEMBL1201862, “PubChem BioAssay data set” (2004).
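Tested at 5 concentrations; 48 h exposure; 96-well plates; endpoints linearly interpolated, else capped at highest concentration. GI50 is the concentration that inhibits growth by half.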 The source made the active and inactive calls. Rule as the data show it: active = GI50 up to about 1.1 µM and inactive = higher.

Legend:
Experiment in all cases: growth of human tumour cells (NCI), 48 h
RPMI-8226 = tested on: RPMI-8226
SNB-75 = tested on: SNB-75
HCC 2998 = tested on: HCC 2998
KM12 = tested on: KM12
TK-10 = tested on: TK-10
K562 = tested on: K562
NCI/ADR-RES = tested on: NCI/ADR-RES
OVCAR-3 = tested on: OVCAR-3
SW-620 = tested on: SW-620
MDA-MB-231 = tested on: MDA-MB-231
IGROV-1 = tested on: IGROV-1
MOLT-4 = tested on: MOLT-4
HOP-92 = tested on: HOP-92
MCF7 = tested on: MCF7
UACC-257 = tested on: UACC-257
PC-3 = tested on: PC-3
LOX IMVI = tested on: LOX IMVI
HL-60 = tested on: HL-60

Measured: GI50

O=[N+]([O-])c1ccc(N2N=C(c3ccc4ccccc4c3O)CC2c2ccc(Cl)cc2)c([N+](=O)[O-])c1 (stereo unspecified)
inactive: RPMI-8226 12.8 µM | SNB-75 73.5 µM | HCC 2998 46.5 µM | KM12 21.8 µM | TK-10 53.1 µM | K562 14.5 µM | NCI/ADR-RES 30.6 µM | OVCAR-3 24.8 µM | SW-620 29.9 µM | MDA-MB-231 20.5 µM | IGROV-1 21.5 µM | MOLT-4 17 µM | HOP-92 33 µM | MCF7 20.3 µM | UACC-257 32.1 µM | PC-3 23.8 µM

O=C(Cc1csc(N/N=C2\C(=O)Nc3ccccc32)n1)Nc1ccccc1
inactive: SNB-75 28.5 µM | LOX IMVI 46.5 µM | HCC 2998 31.6 µM | KM12 29.2 µM | TK-10 44.1 µM | NCI/ADR-RES 20 µM | OVCAR-3 24.2 µM | SW-620 33 µM | MDA-MB-231 28.8 µM | IGROV-1 11.9 µM | MOLT-4 42.5 µM | HL-60 37.1 µM | HOP-92 35.7 µM | MCF7 54.3 µM | UACC-257 25 µM

O=C(NNC(=O)c1ccccc1Cl)c1ccccc1O
inactive: RPMI-8226 > 100 µM | SNB-75 20.5 µM | LOX IMVI 38.1 µM | KM12 20.1 µM | TK-10 > 100 µM | K562 91 µM | NCI/ADR-RES 20.3 µM | OVCAR-3 25.2 µM | SW-620 71.6 µM | MDA-MB-231 > 100 µM | IGROV-1 3.84 µM | MOLT-4 57.1 µM | MCF7 41.4 µM | UACC-257 > 100 µM | PC-3 40.4 µM

Cc1nnc2sc(Cl)nn12
inactive: RPMI-8226 6.1 µM | SNB-75 45.3 µM | LOX IMVI 10 µM | HCC 2998 15.5 µM | KM12 14.5 µM | TK-10 27.7 µM | K562 8.05 µM | NCI/ADR-RES 51.5 µM | OVCAR-3 19 µM | SW-620 3.92 µM | MDA-MB-231 22.1 µM | IGROV-1 16.4 µM | MOLT-4 5.65 µM | MCF7 13.3 µM | UACC-257 > 10 µM | PC-3 17.2 µM

N#Cc1ncn(CCO)c1N
inactive: RPMI-8226 > 100 µM | SNB-75 > 100 µM | LOX IMVI > 100 µM | HCC 2998 > 100 µM | KM12 > 100 µM | TK-10 > 100 µM | K562 > 100 µM | NCI/ADR-RES > 100 µM | OVCAR-3 > 100 µM | SW-620 > 100 µM | MDA-MB-231 > 100 µM | IGROV-1 > 100 µM | MOLT-4 > 100 µM | HL-60 > 100 µM | MCF7 > 100 µM | UACC-257 > 100 µM | PC-3 > 100 µM

COC1(OC)c2no[n+]([O-])c2C(OC)(OC)c2c1no[n+]2[O-]
inactive: RPMI-8226 35.6 µM | SNB-75 18.3 µM | LOX IMVI 14.9 µM | HCC 2998 21 µM | KM12 11.7 µM | TK-10 16.1 µM | K562 38.9 µM | NCI/ADR-RES 26.6 µM | OVCAR-3 7.85 µM | SW-620 17.9 µM | MDA-MB-231 16.4 µM | IGROV-1 21.7 µM | MOLT-4 12.4 µM | HL-60 37.3 µM | MCF7 14.1 µM | UACC-257 12.5 µM | PC-3 25.3 µM

CC(C)(C)OC(=O)NCCCCC(NC(=O)c1ccccc1)C(N)=O (stereo unspecified)
inactive: RPMI-8226 > 100 µM | SNB-75 > 100 µM | LOX IMVI > 100 µM | KM12 > 100 µM | TK-10 > 100 µM | K562 54.7 µM | NCI/ADR-RES > 100 µM | OVCAR-3 > 100 µM | SW-620 > 100 µM | MDA-MB-231 > 100 µM | MOLT-4 46.6 µM | MCF7 > 100 µM | UACC-257 > 100 µM | PC-3 > 100 µM

CC1(C)[C@H]2CC[C@]1(C)[C@H](OC(=O)NNC(=O)O[C@@H]1C[C@@H]3CC[C@@]1(C)C3(C)C)C2
inactive: RPMI-8226 10.5 µM | SNB-75 13.6 µM | LOX IMVI 26.7 µM | HCC 2998 14.1 µM | KM12 15.7 µM | TK-10 20.6 µM | K562 3.35 µM | OVCAR-3 11.9 µM | SW-620 19.4 µM | MDA-MB-231 13 µM | IGROV-1 15.4 µM | MOLT-4 7.29 µM | HL-60 7.01 µM | HOP-92 15.1 µM | MCF7 10.9 µM | UACC-257 16.3 µM

O=c1[nH]nc(Cc2ccc(Cl)cc2)n1Nc1ccccc1
inactive: SNB-75 48.8 µM | LOX IMVI > 100 µM | HCC 2998 > 100 µM | KM12 > 100 µM | TK-10 > 100 µM | K562 > 100 µM | NCI/ADR-RES > 100 µM | OVCAR-3 > 100 µM | SW-620 > 100 µM | MDA-MB-231 > 100 µM | IGROV-1 > 100 µM | MOLT-4 > 100 µM | HOP-92 > 100 µM | MCF7 > 100 µM | UACC-257 > 100 µM | PC-3 > 100 µM

COc1ccc(C(OCC2OC(n3ccc(NC(=O)c4ccccc4)nc3=O)C(O)C2O)(c2ccccc2)c2ccccc2)cc1 (stereo unspecified)
inactive: RPMI-8226 2.42 µM | SNB-75 9.55 µM | HCC 2998 3.4 µM | KM12 21.1 µM | K562 2.38 µM | NCI/ADR-RES 2.37 µM | OVCAR-3 1.69 µM | SW-620 3.13 µM | MDA-MB-231 2.13 µM | IGROV-1 2.08 µM | MOLT-4 2.1 µM | HL-60 2.24 µM | MCF7 2.22 µM | UACC-257 8.39 µM | PC-3 3.09 µM

C[C@@H]1CCC2C(C)(C)C(/C=C\C=O)C3(C)OC213 (stereo partly specified)
inactive: RPMI-8226 28.7 µM | SNB-75 29.1 µM | HCC 2998 48.5 µM | KM12 36.1 µM | TK-10 72.6 µM | K562 33.6 µM | NCI/ADR-RES 30 µM | OVCAR-3 33.4 µM | SW-620 40.9 µM | MDA-MB-231 49.2 µM | IGROV-1 24.6 µM | MOLT-4 31.8 µM | HOP-92 26.5 µM | MCF7 40.6 µM | UACC-257 45.8 µM | PC-3 41.2 µM

N#CC1(c2ccccc2)CCN(C2(c3ccccc3)CCCCC2)CC1
inactive: RPMI-8226 > 100 µM | SNB-75 > 100 µM | LOX IMVI > 100 µM | HCC 2998 > 100 µM | KM12 > 100 µM | TK-10 > 100 µM | K562 > 100 µM | NCI/ADR-RES > 100 µM | OVCAR-3 > 100 µM | SW-620 > 100 µM | MDA-MB-231 > 100 µM | IGROV-1 > 100 µM | MOLT-4 > 100 µM | HL-60 > 100 µM | MCF7 > 100 µM | UACC-257 > 100 µM | PC-3 > 100 µM

CCOC(=O)c1nnsc1N/N=C\c1ccc([N+](=O)[O-])cc1
inactive: RPMI-8226 > 100 µM | SNB-75 44.5 µM | HCC 2998 > 100 µM | KM12 > 100 µM | TK-10 > 100 µM | K562 > 100 µM | NCI/ADR-RES > 100 µM | OVCAR-3 > 100 µM | SW-620 > 100 µM | MDA-MB-231 79.8 µM | IGROV-1 > 100 µM | MOLT-4 > 100 µM | MCF7 > 100 µM | UACC-257 > 100 µM | PC-3 > 100 µM

COc1ccc([S+]([O-])Cc2cc(OC)c(OC)c(OC)c2)cc1 (stereo unspecified)
inactive: RPMI-8226 42.2 µM | SNB-75 45.4 µM | LOX IMVI 91.6 µM | HCC 2998 54.3 µM | KM12 40.8 µM | TK-10 > 100 µM | K562 14.7 µM | NCI/ADR-RES 40.7 µM | OVCAR-3 57.8 µM | SW-620 30.3 µM | MDA-MB-231 84.5 µM | IGROV-1 > 100 µM | MOLT-4 27 µM | HL-60 > 10 µM | MCF7 39.5 µM | UACC-257 > 100 µM | PC-3 > 100 µM

CN1CCCOC(c2ccc(Cl)cc2)O1 (stereo unspecified)
inactive: SNB-75 > 100 µM | LOX IMVI > 100 µM | HCC 2998 > 100 µM | KM12 > 100 µM | TK-10 > 100 µM | K562 > 100 µM | NCI/ADR-RES > 100 µM | OVCAR-3 > 100 µM | SW-620 > 100 µM | MDA-MB-231 > 100 µM | IGROV-1 > 100 µM | MOLT-4 > 100 µM | HOP-92 65 µM | MCF7 > 100 µM | UACC-257 > 100 µM | PC-3 > 100 µM

COC(=O)C1=C(C(=O)OC)SC(=C2c3ccsc3-c3sccc32)S1
inactive: RPMI-8226 76.9 µM | SNB-75 15.9 µM | LOX IMVI > 100 µM | HCC 2998 40.6 µM | KM12 40.3 µM | TK-10 24.5 µM | K562 36.2 µM | NCI/ADR-RES 62.8 µM | OVCAR-3 31 µM | SW-620 69 µM | MDA-MB-231 > 100 µM | IGROV-1 40.6 µM | MOLT-4 39.4 µM | HL-60 24 µM | MCF7 27.4 µM | UACC-257 64.4 µM | PC-3 47 µM

CN(C)Cc1cc(/C=C/C(=O)c2ccc(Br)cc2)cc(CN(C)C)c1O
inactive: RPMI-8226 3.54 µM | SNB-75 12.5 µM | HCC 2998 14 µM | KM12 13.4 µM | TK-10 12.8 µM | K562 25.1 µM | NCI/ADR-RES 36.6 µM | OVCAR-3 20.8 µM | SW-620 19.1 µM | MDA-MB-231 14.7 µM | IGROV-1 8.95 µM | MOLT-4 9.95 µM | HL-60 6.84 µM | MCF7 22.6 µM | UACC-257 17.2 µM | PC-3 26.6 µM
